Where no end group is shown, it is not given here.
Legend:
[1] = tested on: meningococcal LOS (TLR4 ligand); assay: Inhibition of meningococcal LOS activity in macrophages (Table 1); type: cell-based, Neisseria meningitidis; settings: peptide 2 µg/mL preincubated with meningococcal LOS 30 min at 37 °C, macrophages stimulated overnight; read-out behind the % not stated in Table 1
Description: (§1) Human THP-1 (monocyte-like cells) and murine RAW264 macrophages were stimulated with TLR ligands with or without preincubation with PG-1 and its analogs (Table 1). Purified meningococcal CPS samples were freshly dissolved in pyrogen-free sterile H2O at 1 mg/mL stock concentration and vortexed for 2 min. Working CPS concentrations (ranging from 100 µg/mL to 1 µg/mL) were made in duplicate wells using sterile PBS by serial fold dilutions in the 96-well tissue culture plates (Becton Dickinson, Franklin Lakes, NJ, USA) at 50 µL final volumes. PG-1 analogs (2 µg/mL) or PBS equivalent volumes were added to designated wells and preincubated for 30 min at 37 °C. Freshly grown THP-1 cells and murine macrophages, each adjusted to 10^6 cell/mL and 250 µL aliquots, were dispensed into each well at a final cell density of 250 × 10^3 in the designated 96-well plates. The plates were incubated overnight at 37 °C with 5% CO2 and humidity. Supernatants from stimulated cells were harvested and stored at −20 °C until use.
(§2) The cytokines TNFα and IL-1β, released from THP-1 cells, were quantified by DuoSet ELISA (R&D Systems), as previously described. […]
(§3) Freshly grown adherent RAW264 macrophages were harvested, washed and re-suspended in Dulbecco’s complete media, counted and adjusted to 10^6 cell/mL. […] Nitric oxide release was quantified using the Greiss chemical method, as previously described.

[2] = tested on: meningococcal capsular polysaccharide (CPS) polymers (TLR2 and TLR4 ligand); assay: Inhibition of meningococcal CPS polymer activity in macrophages (Table 1); type: cell-based, Neisseria meningitidis; settings: peptide 2 µg/mL preincubated with meningococcal CPS polymers 30 min at 37 °C, macrophages stimulated overnight; read-out behind the % not stated in Table 1
Description: as §1, §2, §3

[3] = tested on: RAW264 macrophages induced with meningococcal LOS; assay: Nitric oxide release from RAW264 macrophages induced with meningococcal LOS, Greiss method; type: cell-based, murine; settings: RAW264, LOS doses preincubated with 2 µg/mL peptide 30 min at 37 °C, overnight, Figure 6, result in words
Description: Figure 6 PG-1 analogs neutralized meningococcal LOS bioactivity and inhibited nitric oxide release. Nitric oxide was released from murine RAW264 macrophages induced overnight with meningococcal LOS doses pre-incubated with or without 2 µg/mL of PG-1 or its analogs for 30 min at 37 °C. Nitric oxide release was measured by the Greiss method. Error bars represent ± SD from the mean of duplicate measurements. This experiment is representative of two independent experiments.
as §1, with “Freshly grown THP-1 cells and murine macrophages, each adjusted to 10^6 cell/mL and 250 µL aliquots, were dispensed into each well at a final cell density of 250 × 10^3 in the designated 96-well plates. The plates were incubated overnight at 37 °C with 5% CO2 and humidity. Supernatants from stimulated cells were harvested and stored at −20 °C until use.” left out
as §3

[4] = tested on: RAW264 macrophages induced with meningococcal CPS polymers; assay: Nitric oxide release from RAW264 macrophages induced with meningococcal CPS polymers, Greiss method; type: cell-based, murine; settings: RAW264, CPS doses preincubated with 2 µg/mL peptide 30 min at 37 °C, overnight, Figure 7, result in words
Description: Figure 7 PG-1 analogs neutralized meningococcal capsular polysaccharide (CPS) polymer activity and inhibited nitric oxide release. CPS polymers were purified from the endotoxin-deficient serogroup B meningococcal NMB-lpxA mutant designated CPS. Nitric oxide was released from murine RAW264 macrophages induced overnight with doses of meningococcal CPS polymers pre-incubated with or without 2 µg/mL of PG-1 or its analogs for 30 min at 37 °C. Nitric oxide release was measured by the Greiss method. Error bars represent ±SD from the mean of duplicate measurements. This experiment is representative of two independent experiments.
Human THP-1 (monocyte-like cells) and murine RAW264 macrophages were stimulated with TLR ligands with or without preincubation with PG-1 and its analogs (Table 1). Purified meningococcal CPS samples were freshly dissolved in pyrogen-free sterile H2O at 1 mg/mL stock concentration and vortexed for 2 min. […]
as §3

Substance | LOS activity inhibition (%) [1] [%] | CPS activity inhibition (%) [2] [%] | Inhibition of nitric oxide release (neutralization of LOS) [3] | Inhibition of nitric oxide release (neutralization of CPS) [4]
Protegrin-1 (RGGRLCYCRRRFCVCVGR; not fully specified; cysteine pairing not given here) [Compound 1, native porcine PG-1, 18-residue β-hairpin peptide with two disulfide bridges] | 99.9 | 99 | – | –
Compound 8: linearized non-cysteine PG-1 analog with alanine replacements (RGGRLAYARRRFAVAVGR-NH2) | 33 | 23 | failed to inhibit | failed to inhibit

— publication PMC4472440, “Structure-Dependent Immune Modulatory Activity of Protegrin-1 Analogs” (Antibiotics, 2014)
